The values that follow come from BindingDB's records for patent US20230365627 (Bristol Myers Squibb, 2023).

Molecules are shown by their SMILES. *1 amine or outer side, *2 acyl side, *3 side chain or, on linkers, in order; H or OH if unused. Where a SMILES comes first, the peptide text is derived from it. Bridges are numbered along the chain shown (N, C = ends). [ ]: non-standard residue; d: D form. X14 = O=C([C@H](CN1Cc2cccc(c2)B2OCC(O)[C@@H](O2)[C@@H](O)[C@H](O)[C@H](O)C1)N[*:1])[*:2]; X13 = O=C([C@H](CCNC[C@@H](O)[C@@H](O)[C@H](O)[C@H](O)C(O)CO)N[*:1])[*:2]; Trp(1-CH2COOH) = N[C@@H](Cc1cn(CC(=O)O)c2ccccc12)C(=O)O; Hyp = O=C(O)[C@@H]1C[C@@H](O)CN1; NMeNle = CCCC[C@H](NC)C(=O)O; NMeA = CN[C@@H](C)C(=O)O

Sequence of Programmed cell death 1 ligand/protein 1 (Q9NZQ7 whole entry, the tested form may be a part): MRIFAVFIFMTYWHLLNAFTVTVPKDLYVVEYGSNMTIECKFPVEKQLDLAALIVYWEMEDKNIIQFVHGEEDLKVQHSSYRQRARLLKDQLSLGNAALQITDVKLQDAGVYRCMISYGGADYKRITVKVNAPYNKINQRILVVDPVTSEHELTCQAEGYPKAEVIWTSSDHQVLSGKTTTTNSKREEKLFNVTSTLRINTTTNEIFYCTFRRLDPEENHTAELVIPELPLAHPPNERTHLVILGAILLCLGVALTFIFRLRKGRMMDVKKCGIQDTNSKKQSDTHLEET
Sequence of Programmed cell death 1 ligand/protein 1 (Q15116 whole entry, further chain, the tested form may be a part): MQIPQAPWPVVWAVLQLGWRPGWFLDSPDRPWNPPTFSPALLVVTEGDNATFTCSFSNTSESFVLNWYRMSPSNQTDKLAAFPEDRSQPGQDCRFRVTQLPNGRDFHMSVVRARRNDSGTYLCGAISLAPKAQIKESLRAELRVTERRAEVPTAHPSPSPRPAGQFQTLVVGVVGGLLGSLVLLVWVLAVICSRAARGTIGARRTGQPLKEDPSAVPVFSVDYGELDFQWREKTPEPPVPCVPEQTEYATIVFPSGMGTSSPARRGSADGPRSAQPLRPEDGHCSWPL

This assay has as its target Programmed cell death 1 ligand/protein 1 (Homo sapiens, UniProt Q9NZQ7). Description: Binding of PD-1 to PD-L1 Using Homogenous Time-Resolved Fluorescence (HTRF) Binding Assay. The protocol:
Homogenous Time-Resolved Fluorescence (HTRF) Binding Assay. The interaction of PD-1 and PD-L1 can be assessed using soluble, purified preparations of the extracellular domains of the two proteins. The PD-1 and PD-L1 protein extracellular domains were expressed as fusion proteins with detection tags, for PD-1, the tag was the Fc portion of Immunoglobulin (PD-1-Ig) and for PD-L1 it was the 6 histidine motif (PD-L1-His). All binding studies were performed in an HTRF assay buffer consisting of dPBS supplemented with 0.1% […] bovine serum albumin and 0.05% (v/v) Tween-20. For the h/PD-L1-His binding assay, inhibitors were pre-incubated with PD-L1-His (10 nM final) for 15 m in 4 μl of assay buffer, followed by addition of PD-1-Ig (20 nM final) in 1 μl of assay buffer and further incubation for 15 m. HTRF detection was achieved using europium cryptate-labeled anti-Ig (1 nM final) and allophycocyanin (APC) labeled anti-His (20 nM final). Antibodies were diluted in HTRF detection buffer and 5 μl was dispensed on top of the binding reaction. The reaction mixture was allowed to equilibrate for 30 minutes and the resulting signal (665 nm/620 nm ratio) was obtained using an EnVision fluorometer. Additional binding assays were established between the human proteins PD-1-Ig/PD-L2-His (20 & 5 nM, respectively) and CD80-His/PD-L1-Ig (100 & 10 nM, respectively).
With `CCCC[C@H]1C(=O)N(C)[C@@H](CCCC)C(=O)N[C@@H](CC(C)C)C(=O)N[C@H](C(=O)NCC(N)=O)CSCC(=O)N[C@@H](Cc2ccc(O)cc2)C(=O)N(C)[C@@H](C)C(=O)N[C@@H](CC(N)=O)C(=O)N2CCC[C@H]2C(=O)N[C@H]2CNC[C@@H](O)[C@@H](O)[C@H](O)[C@@H]3OB(OCC3O)c3ccccc3CNCC[C@H](NC(=O)[C@H](Cc3c[nH]c4ccccc34)NC(=O)[C@@H]3C[C@@H](O)CN3C(=O)[C@H](CC(C)C)NC2=O)C(=O)N[C@@H](Cc2cn(CC(=O)O)c3ccccc23)C(=O)N1C` (some centres undefined) [US20230365627, Compound 1035], the IC50 – broadly, the point on the concentration scale where inhibition reaches its midpoint – was found to be 4 nM.

As to `CCCC[C@H]1C(=O)N(C)[C@@H](CCCC)C(=O)N[C@@H](CC(C)C)C(=O)N[C@H](C(=O)NCC(N)=O)CSCC(=O)N[C@@H](Cc2ccc(O)cc2)C(=O)N(C)[C@@H](C)C(=O)N[C@@H](CC(N)=O)C(=O)N2CCC[C@H]2C(=O)N[C@H]2CNC[C@@H](O)[C@@H](O)[C@H](O)[C@@H]3OB(OCC3O)c3cccc(c3)CNCC[C@H](NC(=O)[C@H](Cc3c[nH]c4ccccc34)NC(=O)[C@@H]3C[C@@H](O)CN3C(=O)[C@H](CC(C)C)NC2=O)C(=O)N[C@@H](Cc2cn(CC(=O)O)c3ccccc23)C(=O)N1C` (some centres undefined) [US20230365627, Compound 1036], the IC50 amounted to 9.5 nM.

`CCCC[C@H]1C(=O)N(C)[C@@H](CCCC)C(=O)N[C@@H](CC(C)C)C(=O)N[C@H](C(=O)NCC(N)=O)CSCC(=O)N[C@@H](Cc2ccc(O)cc2)C(=O)N(C)[C@@H](C)C(=O)N[C@@H](CC(N)=O)C(=O)N2CCC[C@H]2C(=O)N[C@H]2CNC[C@@H](O)[C@@H](O)[C@H](O)[C@@H]3OB(OCC3O)c3ccc(cc3)CNCC[C@H](NC(=O)[C@H](Cc3c[nH]c4ccccc34)NC(=O)[C@@H]3C[C@@H](O)CN3C(=O)[C@H](CC(C)C)NC2=O)C(=O)N[C@@H](Cc2cn(CC(=O)O)c3ccccc23)C(=O)N1C` (some centres undefined) [US20230365627, Compound 1037] returned an IC50 of 9.5 nM.

For `CCCC[C@H]1C(=O)N(C)[C@@H](CCCC)C(=O)N[C@@H](CC(C)C)C(=O)N[C@H](C(=O)NCC(N)=O)CSCC(=O)N[C@@H](Cc2ccc(O)cc2)C(=O)N(C)[C@@H](C)C(=O)N[C@@H](CC(N)=O)C(=O)N2CCC[C@H]2C(=O)N[C@@H](CN2Cc3cccc(c3)B3OCC(O)[C@@H](O3)[C@@H](O)[C@H](O)[C@H](O)C2)C(=O)N[C@@H](CC(C)C)C(=O)N2C[C@H](O)C[C@H]2C(=O)N[C@@H](Cc2c[nH]c3ccccc23)C(=O)N[C@@H](CCNC[C@@H](O)[C@@H](O)[C@H](O)[C@H](O)C(O)CO)C(=O)N[C@@H](Cc2cn(CC(=O)O)c3ccccc23)C(=O)N1C` (some centres undefined) [US20230365627, Compound 1040] ({CH2CO}-Y[NMeA]NP[X14]L[Hyp]W[X13][Trp(1-CH2COOH)][NMeNle][NMeNle]LCG-NH2; thioether N-14), the IC50 amounted to 5.6 nM.
